Measurements taken from paper PMC12203311, “Design, synthesis, in silico and in vitro evaluation of pyrrole–indole hybrids as dual tubulin and aromatase inhibitors with potent anticancer activities” (RSC Advances, 2025).
Read-outs that look alike come from different tables or passages of the source.

Experiments:
[1] = test system: CCRF-CEM; assay: NCI60 five-dose screen; type: cell-based; conditions: Homo sapiens, leukemia; for CC50: read-out: LC50 (the source's name)
[2] = test system: HOP-92; assay: NCI60 five-dose screen; type: cell-based; conditions: Homo sapiens, HOP-92, NSC lung cancer; for CC50: read-out: LC50 (the source's name)
[3] = test system: NCI-H322M; assay: NCI60 five-dose screen; type: cell-based; conditions: Homo sapiens, NSC lung cancer; for CC50: read-out: LC50 (the source's name)
[4] = test system: NCI-H522; assay: NCI60 five-dose screen; type: cell-based; conditions: Homo sapiens, NCI-H522, NSC lung cancer; for CC50: read-out: LC50 (the source's name)
[5] = test system: KM12; assay: NCI60 five-dose screen; type: cell-based; conditions: Homo sapiens, KM12, colon cancer; for CC50: read-out: LC50 (the source's name)
[6] = test system: SW-620; assay: NCI60 five-dose screen; type: cell-based; conditions: Homo sapiens, SW-620, colon cancer; for CC50: read-out: LC50 (the source's name)
[7] = test system: U251; assay: NCI60 five-dose screen; type: cell-based; conditions: Homo sapiens, U-251, U251, CNS cancer; for CC50: read-out: LC50 (the source's name)
[8] = test system: MALME-3M; assay: NCI60 five-dose screen; type: cell-based; conditions: Homo sapiens, melanoma; for CC50: read-out: LC50 (the source's name)
[9] = test system: M14; assay: NCI60 five-dose screen; type: cell-based; conditions: Homo sapiens, M14, melanoma; for CC50: read-out: LC50 (the source's name)
[10] = test system: MDA-MB-435; assay: NCI60 five-dose screen; type: cell-based, human; conditions: for CC50: read-out: LC50 (the source's name)
[11] = test system: UACC-257; assay: NCI60 five-dose screen; type: cell-based; conditions: Homo sapiens, UACC-257, melanoma; for CC50: read-out: LC50 (the source's name)
[12] = test system: OVCAR-4; assay: NCI60 five-dose screen; type: cell-based; conditions: Homo sapiens, OVCAR-4, ovarian cancer; for CC50: read-out: LC50 (the source's name)
[13] = test system: OVCAR-5; assay: NCI60 five-dose screen; type: cell-based; conditions: Homo sapiens, OVCAR-5, ovarian cancer; for CC50: read-out: LC50 (the source's name)
[14] = test system: 786-0; assay: NCI60 five-dose screen; type: cell-based; conditions: Homo sapiens, 786-0, renal cancer; for CC50: read-out: LC50 (the source's name)
[15] = test system: A498; assay: NCI60 five-dose screen; type: cell-based; conditions: Homo sapiens, A498, renal cancer; for CC50: read-out: LC50 (the source's name)
[16] = test system: TK-10; assay: NCI60 five-dose screen; type: cell-based; conditions: Homo sapiens, TK-10, renal cancer; for CC50: read-out: LC50 (the source's name)
[17] = test system: DU-145; assay: NCI60 five-dose screen; type: cell-based; conditions: Homo sapiens, DU-145, prostate cancer; for CC50: read-out: LC50 (the source's name)
[18] = test system: HS 578T; assay: NCI60 five-dose screen; type: cell-based; conditions: Homo sapiens, breast cancer; for CC50: read-out: LC50 (the source's name)
[19] = molecular target: T1, Human CYP19 (aromatase) (Homo sapiens, UniProt P11511); assay: Aromatase inhibition assay (DBF fluorometric substrate); type: biochemical; conditions: active defined as IC50 < 12.5 µM
T1 construct: purchased GENTEST, Woburn, MA 456260; host or cells: baculovirus/insect cells
T1 sequence (P11511 1-503): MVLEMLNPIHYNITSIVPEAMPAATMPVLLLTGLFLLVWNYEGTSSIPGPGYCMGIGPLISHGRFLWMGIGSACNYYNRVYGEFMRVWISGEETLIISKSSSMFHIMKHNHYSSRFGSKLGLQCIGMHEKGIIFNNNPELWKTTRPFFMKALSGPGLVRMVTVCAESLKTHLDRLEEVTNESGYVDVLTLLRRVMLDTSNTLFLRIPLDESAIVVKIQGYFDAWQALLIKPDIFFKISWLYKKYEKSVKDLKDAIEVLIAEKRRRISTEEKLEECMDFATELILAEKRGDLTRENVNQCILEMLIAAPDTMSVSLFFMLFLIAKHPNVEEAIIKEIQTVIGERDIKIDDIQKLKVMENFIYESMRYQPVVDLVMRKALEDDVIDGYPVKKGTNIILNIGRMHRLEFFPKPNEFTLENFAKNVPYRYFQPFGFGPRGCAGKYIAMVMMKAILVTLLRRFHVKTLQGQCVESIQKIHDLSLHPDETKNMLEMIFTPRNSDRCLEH
Procedure: Aromatase enzyme was purchased from GENTEST, Woburn, MA01801, USA (Supersom human CYP19+oxidoreductase, baculovirus/insect cell-expressed; Product No. 456260). The aromatase inhibitory activity was performed using Human CYP19 enzymes and DBF as a fluorometric substrate as described by Stresser, et al.[41] with minor modifications. The mixture, containing 100 µL of cofactor/serial dilution buffer was pre-incubated in 37 °C for 10 min. […] After incubation at 37 °C for 30 min, the reaction was stopped by addition of 50 µL of 2.2 M NaOH. Fluorescence signal was monitored using an excitation wavelength of 490 nm and emission wavelength of 530 nm.

[20] = test system: T47D breast cancer cell line; assay: Cytotoxicity MTT assay, T47D; type: cell-based, human; conditions: Homo sapiens, T47D; MTT, 48 hours
Procedure: (§1) T47D (ATCC HTB-133) was purchased from Biomedia (Thailand) Co., LTD. L929 (ATCC CCL-1) was received as a gift from Prof. Tanapat Palaga, Department of Microbiology, Faculty of Science, Chulalongkorn University, Bangkok, Thailand. The cells were cultured in Dulbecco's Modified Eagle's Medium (DMEM; Gibco) supplemented with 10% fetal bovine serum (FBS; HyClone), 100 U mL^−1 penicillin and 100 µg mL^−1 streptomycin (Gibco) at 37 °C with 5% CO2.
(§2) The antiproliferative activity was determined by MTT assay. Briefly, the cells were plated into a 96-well microplate at the density of 10 000 cells per well. The cells were allowed to grow overnight before treated with the solutions of compounds in culture medium at the designated concentrations for 48 hours. The medium was then replaced with MTT solution (0.5 mg mL^−1 MTT in culture medium) and incubated for 3 hours. A 100 µL of DMSO was used to dissolve the produced formazan. Absorbance at 570 nm was then measured using a microplate reader (Varioskan™ LUX multimode microplate reader, Thermo Scientific™). Percent viability was calculated relative to the vehicle control (DMSO).

[21] = Cytotoxicity MTT assay, L929; type: cell-based, mouse; conditions: mouse, L929 fibroblast cells; MTT, 48 hours
Procedure: as §1, §2

[22] = test system: L929 normal mouse fibroblast cell line; assay: Cytotoxicity MTT assay, L929; type: cell-based; conditions: for Selectivity index (SI): IC50 (L929)/IC50 (T47D); for L929 cell survival / L929 toxicity at single concentration: 50 µM single concentration
Procedure: as §1, §2

[23] = Homo sapiens, MDA-MB-435, MDA-MB-435, melanoma
[24] = Homo sapiens, MDA-MB-435, melanoma

## CCOC(=O)c1cc(/C=N/NC(=O)c2[nH]c3ccc(Br)cc3c2-c2ccccc2)c[nH]1 [Derivative 3v, Ethyl (E)-4-((2-(5-bromo-3-phenyl-1H-indole-2-carbonyl)hydrazono)methyl)-1H-pyrrole-2-carboxylate]
[1]
  GI50: 3.7 µM
  CC50: > 100 µM
[2]
  GI50: 7.99 µM
  CC50: > 100 µM
[3]
  GI50: 4.42 µM
  CC50: 76.1 µM
[4]
  GI50: 2.41 µM
  CC50: 61.2 µM
[5]
  GI50: 3.37 µM
  CC50: 35.5 µM
[6]
  GI50: 4.41 µM
  CC50: 40.1 µM
[7]
  GI50: 3.8 µM
  CC50: 37.6 µM
[8]
  GI50: 4.32 µM
  CC50: 52.8 µM
[9]
  GI50: 3.54 µM
  CC50: 41.3 µM
[10]; [23]
  CC50: 9.35 µM
[10]; [24]
  GI50: 1.54 µM
[10]; MDA-MB-435, melanoma
  CC50: 9.53 µM
[11]
  GI50: 11.7 µM
  CC50: 77.8 µM
[12]
  GI50: 9 µM
  CC50: 52.8 µM
[13]
  GI50: 3.49 µM
  CC50: 37.4 µM
[14]
  GI50: 6.01 µM
  CC50: 53.3 µM
[15]
  GI50: 12.9 µM
  CC50: 52.1 µM
[16]
  GI50: 12.5 µM
  CC50: 80.7 µM
[17]
  GI50: 3.36 µM
  CC50: 33.4 µM
[18]
  GI50: 3.11 µM
  CC50: > 100 µM
[19]
  IC50: 2.5 ± 0.6 µM
[20]
  IC50: 24.9 ± 8.4 µM
[21]
  IC50 at 48 h: 90.1 ± 40.3 µM
[22]
  Selectivity index (SI): 3.62

## CCc1cc[nH]c1/C=N/NC(=O)c1[nH]c2ccc(Br)cc2c1-c1ccccc1 [Derivative 3u, (E)-5-Bromo-N′-((3-ethyl-1H-pyrrol-2-yl)methylene)-3-phenyl-1H-indole-2-carbohydrazide]
[1]
  GI50: 2.35 µM
  CC50: 63.8 µM
[2]
  GI50: 3.8 µM
  CC50: 44.3 µM
[3]
  GI50: 3.93 µM
  CC50: 43.4 µM
[4]
  GI50: 2.3 µM
  CC50: 34.1 µM
[5]
  GI50: 3.17 µM
  CC50: 42.3 µM
[6]
  GI50: 3.82 µM
  CC50: 43.3 µM
[7]
  GI50: 2.15 µM
  CC50: 37.8 µM
[8]
  GI50: 3.5 µM
  CC50: 40 µM
[9]
  GI50: 1.62 µM
  CC50: 23.7 µM
[10]; [23]
  CC50: 41.6 µM
[10]; [24]
  GI50: 4.12 µM
[11]
  GI50: 3.78 µM
  CC50: 40.8 µM
[12]
  GI50: 3.33 µM
  CC50: 43.7 µM
[13]
  GI50: 6.77 µM
  CC50: 45.4 µM
[14]
  GI50: 3.51 µM
  CC50: 44.3 µM
[15]
  GI50: 1.45 µM
  CC50: 55.4 µM
[16]
  GI50: 5.05 µM
  CC50: 41.6 µM
[17]
  GI50: 4.3 µM
  CC50: 42.3 µM
[18]
  GI50: 3.6 µM
  CC50: 61.8 µM
[19]
  IC50: 9.6 ± 1 µM
[20]
  IC50: 6.2 ± 3.6 µM
[21]
  IC50 at 48 h: 12.2 ± 0.7 µM
[22]
  Selectivity index (SI): 1.97

## Cn1cccc1/C=N/NC(=O)c1[nH]c2ccc(Br)cc2c1-c1ccccc1 [Derivative 3d, (E)-5-Bromo-N′-((1-methyl-1H-pyrrol-2-yl)methylene)-3-phenyl-1H-indole-2-carbohydrazide]
[1]
  GI50: 0.429 µM
  CC50: > 100 µM
[2]
  GI50: 0.429 µM
  CC50: > 100 µM
[3]
  GI50: 1.98 µM
  CC50: > 100 µM
[4]
  GI50: 0.217 µM
  CC50: > 100 µM
[5]
  GI50: 0.357 µM
  CC50: > 100 µM
[6]
  GI50: 0.432 µM
  CC50: > 100 µM
[7]
  GI50: 0.477 µM
  CC50: > 100 µM
[8]
  GI50: 0.409 µM
  CC50: > 100 µM
[9]
  GI50: 0.324 µM
  CC50: > 100 µM
[10]; [24]
  GI50: 0.151 µM
[11]
  GI50: 0.416 µM
  CC50: > 100 µM
[12]
  GI50: 0.637 µM
  CC50: > 100 µM
[13]
  GI50: 0.472 µM
  CC50: > 100 µM
[14]
  GI50: 29.4 µM
  CC50: > 100 µM
[15]
  GI50: > 100 µM
  CC50: > 100 µM
[16]
  GI50: 1.01 µM
  CC50: > 100 µM
[17]
  GI50: 0.399 µM
  CC50: > 100 µM
[18]
  GI50: 0.22 µM
  CC50: > 100 µM
[19]
  IC50: > 12.5 µM
  aromatase inhibition: inactivity against aromatase
[20]
  IC50: 1 ± 0.4 µM
[22]
  L929 cell survival: > 80%
  L929 toxicity at single concentration: — ^c (No toxicity observed at 50 µM single concentration (>80% cell survival).)

## Cc1[nH]c(/C=N/NC(=O)c2[nH]c3ccc(Br)cc3c2-c2ccccc2)c(C)c1[N+](=O)[O-] [Derivative 3r, (E)-5-Bromo-N′-((3,5-dimethyl-4-nitro-1H-pyrrol-2-yl)methylene)-3-phenyl-1H-indole-2-carbohydrazide]
[1]
  GI50: 1.89 µM
  CC50: > 100 µM
[2]
  GI50: 2.51 µM
  CC50: 45.8 µM
[3]
  GI50: 4.22 µM
  CC50: 89.5 µM
[4]
  GI50: 2.43 µM
  CC50: 29.6 µM
[5]
  GI50: 1.92 µM
  CC50: 11.6 µM
[6]
  GI50: 2.06 µM
  CC50: 19.1 µM
[7]
  GI50: 1.85 µM
  CC50: 13.4 µM
[8]
  GI50: 1.99 µM
  CC50: 28.5 µM
[9]
  GI50: 2.54 µM
  CC50: 36.3 µM
[10]; [23]
  CC50: 17.9 µM
[10]; [24]
  GI50: 1.77 µM
[11]
  GI50: 3.13 µM
  CC50: 48.1 µM
[12]
  GI50: 1.97 µM
  CC50: 18.8 µM
[13]
  GI50: 3.53 µM
  CC50: 41.5 µM
[14]
  GI50: 2.35 µM
  CC50: 17 µM
[15]
  GI50: 2.35 µM
  CC50: 27.6 µM
[16]
  GI50: 5.1 µM
  CC50: 41.2 µM
[17]
  GI50: 3.48 µM
  CC50: 34.9 µM
[18]
  GI50: 2.43 µM
  CC50: 97.2 µM
[19]
  IC50: 0.2 ± 0.1 µM
[20]
  IC50: 12.3 ± 0.3 µM
[22]
  L929 cell survival: > 80%
  L929 toxicity at single concentration: — ^c (No toxicity observed at 50 µM single concentration (>80% cell survival).)
